What was measured:
[1] = tested on: lipoxygenase pathway (LTB4); assay: biosynthesis of mediators of the lipoxygenase pathway in vitro on rat polymorphonucleocytes stimulated by ionophore A23187; assay type: cell-based
From the text: (§1) Tordjman et al. ("High-performance liquid chromatographic quantitation of cyclooxygenase and lipoxygenase metabolites of arachidonic acid from rat polymorphonuclear leucocytes" Journal of Chromatography, 532, 1990, 135-143).

[2] = tested on: cyclooxygenase pathway (PGE2); assay: biosynthesis of mediators of the cyclooxygenase pathway in vitro on rat polymorphonucleocytes stimulated by ionophore A23187; assay type: cell-based
From the text: as §1

mouse = assay: acute inflammatory pain test in the mouse (Siegmund test, writhing); assay type: in vivo; settings: oral administration, read-out: dose causing 50% inhibition of the reactions of the animal
From the text: Exp. Ther. 119, 1957, 184).

rat = assay: polyarthritis auto-immune model in the rat using Freund's adjuvant; assay type: in vivo; settings: oral, 5 mg/kg/day, 14th day of the pathology
Method: 3) The activity on chronic inflammation was evaluated in a polyarthritis auto-immune model in the rat using Freund's adjuvant in accordance with the protocol described by J. Bonnet et al. ("Bone morphometric changes in adjuvant-induced polyarthritic osteopenia in rats; evidence for an early bone formation defect" J. Bone Miner. Res. 8, 1993, 659-668). By way of example, the compound of Example 1, at an oral dose of 5 mg/kg/day, inhibits by 30% the diffusion of arthritis on the 14th day of the pathology.

Row | IC50 [1] [nM] | IC50 [2] [nM] | SMILES | ED50 (mouse) [mg/kg] | inhibition of the diffusion of arthritis (rat) [%]
1 | 250 | 2500 | COc1ccc(-c2sc(CCC(C)(C)CC(=O)N(C)O)cc2-c2ccc(F)cc2)cc1 [Example 5] |  | 
2 | 380 | 750 | COc1ccc(-c2cc(CCC(C)(C)CC(=O)N(C)O)sc2-c2ccc(OC)cc2)cc1 [Example 4] |  | 
3 | 50 | 50 | COc1ccc(-c2sc(CCCC(=O)N(C)O)cc2-c2ccc(C)cc2)cc1 [Example 16] |  | 
4 | 1000 | 2500 | COc1ccc(-c2cc(CCC(C)(C)CC(=O)NO)sc2-c2ccc(OC)cc2)cc1 [Example 3] |  | 
5 | 80 | 380 | COc1ccc(-c2sc(CCC(=O)N(C)O)cc2-c2ccc(F)cc2)cc1 [Example 2] | 5 | 

More lines, now with the values behind:

Row | SMILES | IC50 [1] [nM] | IC50 [2] [nM] | ED50 (mouse) [mg/kg] | inhibition of the diffusion of arthritis (rat) [%]
6 | COc1ccc(-c2cc(CCCC(=O)N(C)O)sc2-c2ccc(OC)cc2)cc1 [Example 6] | 50 | 380 | 2.5 | 
7 | CCN(O)C(=O)CCc1cc(-c2ccc(OC)cc2)c(-c2ccc(OC)cc2)s1 [Example 22] | 50 | 80 |  | 
8 | COc1ccc(-c2cc(CCC(=O)N(C)O)sc2-c2ccc(OC)cc2)cc1 [Example 1, 3-[4,5-bis(4-methoxyphenyl)thien-2-yl]-N-hydroxy-N-methylpropionamide] | 30 | 50 | 1 | 30
